Measured values taken from PMC9369794 (Molecules, 2022).
Converted amounts (≈) assume the structure as drawn.

Key:
[1] = Kinetic solubility in PBS pH 7.4; type: physicochemical; settings: aqueous buffer, kinetic from dmso stock, kinetic solubility after 2 h, at 37 °C in PBS, nominal 250 μM, read-out: Kin.Sol.
Method: On a 96-well polypropylene plate (Greiner bio-one) 7.5 μL stock solutions were added to 292.5 μL PBS (pH 7.4) to make a solution with the nominal concentration of 250 μM. For each sample 3 replicates were measured. […] After that, each sample was transferred into a filter plate (MSSBLPC, Multiscreen Filter plate, Merck kGaA) and filtered (Vaccum Manifold, Merck kGaA, Darmstadt, Germany). The filtrates were transferred into UV-Star microplates (Greiner bio-one) and acetonitrile (AcN) was added to each well to avoid precipitation. The final solvent ratio was AcN:PBS 70:30. UV-Vis spectra were collected for each replicate by a Multiskan Sky UV-plate reader (Thermo Scientific, Waltham, MA, USA) in a wavelength range of 250–700 nm, with 1 nm steps. After blank substraction, the kinetic solubility of the samples was determined based on absorption at λmax using a 5-point calibration curve for each sample recorded in 70:30 AcN:PBS solvent.
Limit of detection (LOD) and limit of quantification (LOQ) were calculated with Equations (1) and (2) respectively, based on UV-Vis spectral data:(1) LOD=3.3×σ/s (2) LOQ=10×σ/s where the σ value in the equations stands for the standard deviation of the absorption base line at 700 nm (where no sample-specific absorption was observed). The s value is the slope of the calibration curve recorded for each sample based on their absorption at λmax (Table 4.)

[2] = BBB-specific permeability assay (BBB-PAMPA); type: in vitro ADME; settings: PBS pH 7.4, 37 °C, read-out: BBB-PAMPA Pe
Method: In vitro, blood-brain barrier-specific (BBB) permeability studies were carried out using the PAMPA technique. First, solutions with the nominal concentration of 250 μM were prepared as described in Section 3.1. The solutions were shaken for 1 h at room temperature, at 300 rpm. For preparing the artificial BBB-specific membrane 16 mg BPLE and 8 mg cholesterol were dissolved in 600 μL dodecane. Each well of the donor plate (MultiscreenTM-IP, MAIPNTR10, pore size […], Merck kGaA) was coated with 5 μL lipid solution, and fitted into the acceptor plate containing 300 μL PBS (pH 7.4) with 2.5% DMSO, and 150–150 μL of the PBS solutions (made from the DMSO stock solutions) were put on the donor plate’s artificial membrane. The sandwich plate system was covered with a tissue of wet paper and a plastic lid to avoid evaporation of the solvent, and it was incubated at 37 °C for 4 h. In the end, the donor solutions were filtrated (Vacuum Manifold, Merck kGaA), and the initial 250 μM solutions (cD(0)), the donor (cD(t)) and acceptor solution (cA(t)) were analyzed by a Multiskan Sky UV-plate-reader (Thermo Scientific) in the wavelength range of 250–700 nm, with 1 nm steps.
BBB permeability was calculated using the effective permeability equation used for iso-pH conditions described by A. Avdeef:(3) Pe=−2.303/A·(t−τss)·(1/1+rv)·lg[−rv+(1+rv/1−MR)·cD(t)/cD(0)] […]

solubility kinetic at 2 h [1]: 123 ± 9.4 µM (≈ 28.6 µg/mL)
Papp at 4 h, 250 μM [2]: 2.97 ± 1.18 ×10⁻⁶ cm/s
Compound: COc1ccc2[nH]cc(CCNC(C)=O)c2c1 [Melatonin, melatonin, reference compound]
